Data on 1 molecule can be found in patent publication US20240390286A1, “PREPARATION OF PHARMACEUTICAL COMPOSITIONS USING SUPERCYCLE VAPOR PHASE DEPOSITION OF METAL OXIDES” (Applied Materials, Inc., priority 2023, published 2024).

Format in all cases: physicochemical
The nature of data set [1]: Particle size distribution by laser diffraction before and after coating. The source says: As shown in the table below, there is no significant change in particle size distribution after the coating process.
A short description of data set [2]: Indomethacin dissolution, pH 7.2 sodium phosphate buffer, USP2 apparatus (paddle). The settings on record: 37° C., 100 rpm. How it is done: In some embodiments, the dissolution or drug release of the coated particles can be assessed by an in vitro release over time (dissolution) analysis. In some embodiments, the dissolution or drug release of the coated particles can be assessed by HPLC analysis. In some embodiments, the dissolution is assessed in methanol. In some embodiments, the dissolution is assessed in a sodium phosphate buffer solution (PBS) (e.g., pH 7.2, with or without surfactant) at 37° C., with a stirring of 100 revolutions per minute (RPM), for more than 1 minute, more than 2 minutes, more than 5 minutes, more than 10 minutes, more than 20 minutes, more than 30 minutes, more than 40 minutes, more than 50 minutes, more than 60 minutes, more than 120 minutes, more than 3 hours, more than 4 hours, more than 5 hours, more than 6 hours, more than 7 hours, more than 8 hours, more than 12 hours, more than 16 hours, more than 24 hours. In some embodiments, the coated particles have a reduced dissolution rate compared to uncoated drug particles. […]

Data set [3] can be described thus: Indomethacin dissolution, pH 7.2 PIPES buffer, USP4 apparatus (flow through). The conditions noted are these: 37° C., 16 ml/min. As to the method:
FIG. 8 depicts the results of a study of indomethacin dissolution in pH 7.2 PIPES buffer solution in a USP4 dissolution apparatus (flow through) at 37° C. at a 16 ml/min flow rate. […] Again, the indomethacin release rates for AZO coated particles were in between that of ZnOx coated particles and that of AlOx coated particles. The release rate of AZO coated particles decreases as the Al/Zn ratio increases.

In data set [1] (laser diffraction), `COc1ccc2c(c1)c(CC(=O)O)c(C)n2C(=O)c1ccc(Cl)cc1` [UC-m-IMC, indomethacin] gave a D10 of 4.4 ± 0.4 μm, a D50 of 13.3 ± 0.1 μm and a D90 of 24.5 ± 0.5 μm. In data set [1] (laser diffraction size distribution), this molecule had a Span of 1.5. Further, in data set [2], the indomethacin release profile entry was “immediate indomethacin release profile”. In addition, the indomethacin release profile entry in data set [3] is “immediate indomethacin release”.
